# Results taken from patent EP1189687B1, “FLOWABLE W/O TYPE EMULSIONS WITH A HIGH WATER CONTENT CONTAINING MEDIUM POLAR LIPIDS” (Beiersdorf AG, priority 1999, dated 2000).
# Assay: Interfacial tension of medium-polar lipids against water (measure of polarity)
# Assay type: physicochemical
# Details: taken as polarity index of the lipid (the lower the tension, the more polar)
# Source text: Öle und Fette unterscheiden sich unter anderem in ihrer Polarität, welche schwierig zu definieren ist. Es wurde bereits vorgeschlagen, die Grenzflächenspannung gegenüber Wasser als Maß für den Polaritätsindex eines Öls bzw. einer Ölphase anzunehmen. Dabei gilt, daß die Polarität der betreffenden Ölphase umso größer ist, je niedriger die Grenzflächenspannung zwischen dieser Ölphase und Wasser ist. Erfindungsgemäß wird die Grenzflächenspannung als ein mögliches Maß für die Polarität einer gegebenen Ölkomponente angesehen.
# Die Grenzflächenspannung ist diejenige Kraft, die an einer gedachten, in der Grenzfläche zwischen zwei Phasen befindlichen Linie der Länge von einem Meter wirkt. Die physikalische Einheit für diese Grenzflächenspannung errechnet sich klassisch nach der Beziehung Kraft/Länge und wird gewöhnlich in mN/m (Millinewton geteilt durch Meter) wiedergegeben. Sie hat positives Vorzeichen, wenn sie das Bestreben hat, die Grenzfläche zu verkleinern. Im umgekehrten Falle hat sie negatives Vorzeichen.
# Die nachfolgende Tabelle 1 führt mittelpolare Lipide auf, die als Einzelsubstanzen oder auch im Gemisch untereinander erfindungsgemäß vorteilhaft sind. Die betreffenden Grenzflächenspannungen gegen Wasser sind in der letzten Spalte angegeben. Es ist jedoch auch vorteilhaft, Gemische aus höher- und niederpolaren und dergleichen zu verwenden, sofern gewährleistet ist, daß die Gesamtpolarität der Ölphase im beanspruchten Bereich liegt. Tabelle 1
row,SMILES,Grenzflächenspannung gegen Wasser
1,"CCCCCCCCCCCCCCCCCC(=O)OCCCCCCCC [Cetiol® 868, Octyl Stearate]","28,4 mN/m"
2,"CCCCCCCCCCC(CO)CCCCCCCC (centres unmarked) [Eutanol® G, Octyldodecanol]","24,8 mN/m"
3,"CCCCCCCCC(CO)CCCCCC (centres unmarked) [Isofol® 16, Hexyl Decanol]","24,3 mN/m"
4,"CCCCCCCCCCCCCC(=O)OCC(CCCCCCCC)CCCCCCCCCC (centres unmarked) [MOD, Octyldodeceyl Myristate]","22,1 mN/m"
5,"CCCCCCCC(=O)OCC(COC(=O)CCCCCCC)OC(=O)CCCCCCC [Trivent® OCG, Tricaprylin]","20,2 mN/m"

# The next lines start with the values.
row,Grenzflächenspannung gegen Wasser,SMILES
1,"21,9 mN/m","CCCCCCCCCCCCCCCCCC(=O)OC(C)C [Isopropylstearal, Isopropyl Stearate]"
2,"29,7 mN/m","CCCCCCCCOC(=O)CCCCCCCCCCCCCCC(C)C [Prisorine® 2036, Octyl Isostearate]"
3,"28,7 mN/m","CCCCCCCCCCCCCCCCCCOC(=O)CCCCCC [Tegosoft® SH, Stearyl Heptanoate]"
